Measured values published in ChEMBL document CHEMBL1128751, “Isolation and structure of the human cancer cell growth inhibitory cyclic decapeptides phakellistatins 7, 8 and 91,2” (1995).
≈ marks a conversion by molar mass, not a printed value. Where a SMILES comes first, the peptide text is derived from it.

Assays:
NCI = assay: Overall panel averaged growth inhibitory concentration against the U. S. National Cancer Institute panel of sixty human cancer cell lines; type: functional
P388 = assay: In vitro inhibition of growth of p388 cells; type: functional; conditions: Mus musculus, read-out: ED50 (the source's name)

| EC50 (P388) [µg/mL] | SMILES | GI50 (NCI) [µM] |
| --- | --- | --- |
| 3 (≈ 2.7 µM) | CC[C@H](C)[C@@H]1NC(=O)[C@@H]2CCCN2C(=O)[C@@H]2CCCN2C(=O)[C@H]([C@@H](C)CC)NC(=O)[C@H](Cc2ccc(O)cc2)NC(=O)[C@@H]2CCCN2C(=O)[C@@H]2CCCN2C(=O)[C@H](CC(C)C)NC(=O)[C@H](C)NC(=O)[C@H](Cc2ccccc2)NC1=O (cyclo(ALPPYIPPIF)) | 0.55 |
| 2.9 (≈ 2.55 µM) | CC[C@H](C)[C@@H]1NC(=O)[C@@H]2CCCN2C(=O)[C@@H]2CCCN2C(=O)[C@H]([C@@H](C)CC)NC(=O)[C@H](Cc2ccc(O)cc2)NC(=O)[C@@H]2CCCN2C(=O)[C@@H]2CCCN2C(=O)[C@H](CC(C)C)NC(=O)[C@H](C(C)C)NC(=O)[C@H](Cc2ccccc2)NC1=O (cyclo(FVLPPYIPPI)) | > 10 |
| 4.1 (≈ 3.65 µM) | CC[C@H](C)[C@@H]1NC(=O)[C@@H]2CCCN2C(=O)[C@@H]2CCCN2C(=O)[C@H](C(C)C)NC(=O)[C@H](Cc2ccc(O)cc2)NC(=O)[C@@H]2CCCN2C(=O)[C@@H]2CCCN2C(=O)[C@H](CC(C)C)NC(=O)[C@H](C(C)C)NC(=O)[C@H](Cc2ccccc2)NC1=O (cyclo(FVLPPYVPPI)) | > 10 |
